Assay results taken from patent publication US20020137929A1, “1 - (3-heterocyclylphenyl) isothiourea, -isourea, -guanidine and -amidine herbicidal agents” (Intellectual Property Department, BASF Aktiengesellschaft, priority 1998, published 2002).

How the values were obtained:
[1] = system: GLXMAW (Soybean, Williams); assay: Postemergence herbicidal evaluation; type: in vivo, Glycine max, (L.) Merr. cv Williams; conditions: postemergence
Method in brief: (§1)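 Seedlings grown about two weeks were sprayed at 40 psi with compound dispersed in 50/50 acetone/water plus 0.5% TWEEN 20, at about 0.0156 to 0.500 kg/ha. Plants were kept in the greenhouse and scored 4–5 weeks later on a 0–9 visual scale against untreated controls.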

[2] = system: ECHORC (Watergrass (Calif.)); assay: Postemergence weed control under flooded paddy conditions; type: in vivo, Echinochloa oryzoides; conditions: postemergence weeds, rated 3 to 4 weeks after treatment
Method in brief: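 Herbicidal effect is judged by eye on a 0–9 scale versus control, 3–4 weeks after dosing. Dosing is into flood water kept 1.5–3 cm over the soil, at about 0.0313–0.500 kg/ha in aqueous/acetone 50/50 v/v, on 3–5 cm weeds and 1.5–2.5-leaf rice seedlings.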

ECHCG (Barnyardgrass) [3] = assay: Postemergence herbicidal evaluation; type: in vivo, Echinochloa crus-galli; conditions: postemergence
Method in brief: as §1

GALAP (Galium) = assay: Preemergence herbicidal evaluation; type: in vivo, Galium aparine; conditions: preemergence, rated 4-5 weeks after treatment, 0-9 scale
Method in brief: (§2)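 Scores use a 0–9 visual scale covering stand, vigor, malformation, size and chlorosis relative to controls, rated four to five weeks after treatment. Before emergence, soil-planted seeds were sprayed with compound in aqueous acetone at roughly 0.0156–0.500 kg/ha and held in the greenhouse.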

ZEAMX (Corn, Field) = assay: Preemergence herbicidal evaluation; type: in vivo, Zea mays; conditions: preemergence, rated 4-5 weeks after treatment, 0-9 scale
Method in brief: as §2

ECHCG (Barnyardgrass) [4] = assay: Preemergence herbicidal evaluation; type: in vivo, Echinochloa crus-galli; conditions: preemergence, rated 4-5 weeks after treatment, 0-9 scale
Method in brief: as §2

[5] = system: TRZAWR (Wheat, Winter, cv Riband); assay: Postemergence herbicidal evaluation; type: in vivo, Triticum aestivum; conditions: postemergence
Method in brief: as §1

AMBEL (Ragweed, Common) = assay: Postemergence herbicidal evaluation; type: in vivo, Ambrosia artemisifolia; conditions: postemergence
Method in brief: as §1

[6] = system: IPOHE (Morningglory, Ivyleaf); assay: Postemergence herbicidal evaluation; type: in vivo, Ipomoea hederacea; conditions: postemergence
Method in brief: as §1

ABUTH (Velvetleaf) = assay: Postemergence herbicidal evaluation; type: in vivo, Abutilon theophrasti; conditions: postemergence
Method in brief: as §1

CASOB (Sicklepod) = assay: Preemergence herbicidal evaluation; type: in vivo, Cassia obtusifolia; conditions: preemergence, rated 4-5 weeks after treatment, 0-9 scale
Method in brief: as §2

[7] = system: IPOHE (Morningglory, Ivyleaf); assay: Preemergence herbicidal evaluation; type: in vivo, Ipomoea hederacea; conditions: preemergence, rated 4-5 weeks after treatment, 0-9 scale
Method in brief: as §2

[8] = system: CHEAL (Lambsquarters, Common); assay: Preemergence herbicidal evaluation; type: in vivo, Chenopodium album; conditions: preemergence, rated 4-5 weeks after treatment, 0-9 scale
Method in brief: as §2

SETVI (Foxtail, Green) = assay: Postemergence herbicidal evaluation; type: in vivo, Setaria viridis; conditions: postemergence
Method in brief: as §1

C=CCN1C(=O)C(CC(=O)NS(C)(=O)=O)SC1=Nc1cc(-n2c(=O)cc(C(F)(F)F)n(C)c2=O)c(F)cc1Cl (centres unmarked) [Compound 96, 3-Allyl-2-{{2-chloro-5-[3,6-dihydro-3-methyl-2,6-dioxo-4-(trifluoromethyl)-1(2H)-pryimidinyl]-4-fluorophenyl}imino}-N-(methylsulfonyl)-4-oxo-5-thiazolidineacetamide]
GLXMAW herbicidal rating ([1]; rate 0.0156 kg/ha): 4.0
GLXMAW herbicidal rating ([1]; rate 0.0313 kg/ha): 4.5
GLXMAW herbicidal rating ([1]; rate 0.0625 kg/ha): 4.0
GLXMAW herbicidal rating ([1]; rate 0.1250 kg/ha): 3.0
Herbicidal rating ECHORC ([2]; Rate 0.0313 kg/ha): 0.0
Herbicidal rating ECHORC ([2]; Rate 0.0625 kg/ha): 0.0
Herbicidal rating ECHORC ([2]; Rate 0.1250 kg/ha): 0.0
Herbicidal rating ECHORC ([2]; Rate 0.2500 kg/ha): 3.0
ECHCG herbicidal rating (ECHCG (Barnyardgrass) [3]; rate 0.0156 kg/ha): 0.0
ECHCG herbicidal rating (ECHCG (Barnyardgrass) [3]; rate 0.0313 kg/ha): 0.0
ECHCG herbicidal rating (ECHCG (Barnyardgrass) [3]; rate 0.0625 kg/ha): 2.0
ECHCG herbicidal rating (ECHCG (Barnyardgrass) [3]; rate 0.1250 kg/ha): 2.0
GALAP rating (GALAP (Galium); 0.0313 kg/ha): 0.0
GALAP rating (GALAP (Galium); 0.0625 kg/ha): 2.0
GALAP rating (GALAP (Galium); 0.1250 kg/ha): 2.0
GALAP rating (GALAP (Galium); 0.2500 kg/ha): 6.0
GALAP rating (GALAP (Galium); 0.5000 kg/ha): 7.0
ZEAMX rating (ZEAMX (Corn, Field); 0.0313 kg/ha): 0.0
ZEAMX rating (ZEAMX (Corn, Field); 0.0625 kg/ha): 1.0
ZEAMX rating (ZEAMX (Corn, Field); 0.1250 kg/ha): 0.0
ZEAMX rating (ZEAMX (Corn, Field); 0.2500 kg/ha): 2.0
ZEAMX rating (ZEAMX (Corn, Field); 0.5000 kg/ha): 4.0
ECHCG rating (ECHCG (Barnyardgrass) [4]; 0.0313 kg/ha): 0.0
ECHCG rating (ECHCG (Barnyardgrass) [4]; 0.0625 kg/ha): 0.0
ECHCG rating (ECHCG (Barnyardgrass) [4]; 0.1250 kg/ha): 0.0
ECHCG rating (ECHCG (Barnyardgrass) [4]; 0.2500 kg/ha): 1.0
ECHCG rating (ECHCG (Barnyardgrass) [4]; 0.5000 kg/ha): 1.0
TRZAWR herbicidal rating ([5]; rate 0.0156 kg/ha): 2.0
TRZAWR herbicidal rating ([5]; rate 0.0313 kg/ha): 2.5
TRZAWR herbicidal rating ([5]; rate 0.0625 kg/ha): 2.5
TRZAWR herbicidal rating ([5]; rate 0.1250 kg/ha): 3.0
AMBEL herbicidal rating (AMBEL (Ragweed, Common); rate 0.0156 kg/ha): 3.0
AMBEL herbicidal rating (AMBEL (Ragweed, Common); rate 0.0313 kg/ha): 4.0
AMBEL herbicidal rating (AMBEL (Ragweed, Common); rate 0.0625 kg/ha): 7.0
AMBEL herbicidal rating (AMBEL (Ragweed, Common); rate 0.1250 kg/ha): 7.0
IPOHE herbicidal rating ([6]; rate 0.0156 kg/ha): 6.0
IPOHE herbicidal rating ([6]; rate 0.0313 kg/ha): 9.0
IPOHE herbicidal rating ([6]; rate 0.0625 kg/ha): 9.0
IPOHE herbicidal rating ([6]; rate 0.1250 kg/ha): 9.0
ABUTH herbicidal rating (ABUTH (Velvetleaf); rate 0.0156 kg/ha): 1.0
ABUTH herbicidal rating (ABUTH (Velvetleaf); rate 0.0313 kg/ha): 7.0
ABUTH herbicidal rating (ABUTH (Velvetleaf); rate 0.0625 kg/ha): 9.0
ABUTH herbicidal rating (ABUTH (Velvetleaf); rate 0.1250 kg/ha): 9.0
CASOB rating (CASOB (Sicklepod); 0.0313 kg/ha): 0.0
CASOB rating (CASOB (Sicklepod); 0.0625 kg/ha): 0.0
CASOB rating (CASOB (Sicklepod); 0.1250 kg/ha): 0.0
CASOB rating (CASOB (Sicklepod); 0.2500 kg/ha): 4.0
CASOB rating (CASOB (Sicklepod); 0.5000 kg/ha): 9.0
IPOHE rating ([7]; 0.0313 kg/ha): 0.0
IPOHE rating ([7]; 0.0625 kg/ha): 0.0
IPOHE rating ([7]; 0.1250 kg/ha): 1.0
IPOHE rating ([7]; 0.2500 kg/ha): 9.0
IPOHE rating ([7]; 0.5000 kg/ha): 9.0
CHEAL rating ([8]; 0.0313 kg/ha): 2.0
CHEAL rating ([8]; 0.0625 kg/ha): 2.0
CHEAL rating ([8]; 0.1250 kg/ha): 3.0
CHEAL rating ([8]; 0.2500 kg/ha): 9.0
CHEAL rating ([8]; 0.5000 kg/ha): 9.0
SETVI herbicidal rating (SETVI (Foxtail, Green); rate 0.0156 kg/ha): 0.0
SETVI herbicidal rating (SETVI (Foxtail, Green); rate 0.0313 kg/ha): 1.0
SETVI herbicidal rating (SETVI (Foxtail, Green); rate 0.0625 kg/ha): 7.0
SETVI herbicidal rating (SETVI (Foxtail, Green); rate 0.1250 kg/ha): 4.0
